Data reported in patent US12480074B2, “Natural and synthetic cannabinoids as fluorescent tags; compositions, methods, and applications” (UNIVERSITY OF CONNECTICUT, priority 2023, dated 2025).

Assays:
Type in all cases: physicochemical
[1] = Absorption and fluorescence spectroscopy of CBN ether dimers (odd-even effect); details: FIG. 9
Excerpt: A change in number of carbon atoms in the linker with respect to the fluorescence was observed. Absorption and fluorescence spectroscopy was used to evaluate this change with the different dimers and the results are provided in FIGS. 9-10. FIG. 9 is a stacked graph of fluorescence spectroscopy for the odd and even series of dimers of Example 12 (x-axis wavelength in nanometers; y-axis intensity) and FIG. 10 is a stacked graph of the absorption spectroscopy for the same dimers (x-axis wavelength in nanometers; y-axis intensity). […] By changing the number of carbons in linkers, it was observed that when the number of carbon spacer is odd (3C and 5C) the fluorescence is higher compared to the even (2C, 4C and 6C), and a distinct hump at higher wavelengths is observed for odd numbered linkers. This change in the spectra with changing the number of carbons is termed here as the “odd-even effect”.

[2] = Fluorescence viewed under long range UV light of 365 nm; details: excitation at 365 nm
Excerpt: In fact, the fluorescence is tied to molecular structure as characterized by ^1H NMR. Phytocannabinoids THC and CBN, are fluorescent, with excitation at 365 nanometer (nm). When fluorescent, the CBN phenolic OH becomes broad meaning that it is in some way connected to the fluorescence of the molecule.

[3] = Fluorescence spectrometer analysis of cannabinoid monomers and adipate dimers
[4] = Stability of CBN observed by NMR
Excerpt: In some embodiments, charge transfer complexes will quench fluorescence, and FRET as it will enhance fluorescence and cause a shift in color. Such adaptations provide, for example, for observation and understanding of a drug as it travels through the body, moves through a cell wall, and binds to a receptor site.

[5] = Fluorescence of CBN-aniline
Experimental: The synthesis of CBN-aniline was conducted via C—O bond using copper catalyst. The product was characterized by ^1H NMR. […] The CBN-aniline can be formed into dimers by linking through the aniline amine.

[6] = Fluorescence quenching by phenylenediamine isomers in acetone
Experimental: Experiments were conducted to investigate the fluorescence quenching of cannabinol 2C ether dimer (Example 12) in acetone upon mixing with different isomers of phenylenediamine: ortho-phenylenediamine, meta-phenylenediamine, and para-phenylenediamine. […] This quenching phenomenon can be attributed to the electronic interactions and spatial arrangements of the amino groups in the different phenylenediamine isomers. Both ortho- and para-phenylenediamine have amino groups positioned such that they can effectively engage in electron-donating and resonance interactions with the excited state of cannabinol 2C ether dimer, facilitating non-radiative relaxation pathways such as photoinduced electron transfer (PET).

| Compound | fluorescence (fluorescent or not) [2] | maximum fluorescence, Wavelength (nm) [3] [nm] | further results |
| --- | --- | --- | --- |
| CCCCCc1cc(OCCCOc2cc(CCCCC)cc3c2-c2cc(C)ccc2C(C)(C)O3)c2c(c1)OC(C)(C)c1ccc(C)cc1-2 [3C] | – | – | fluorescence, odd carbon spacer compared to the even (2C, 4C and 6C) [1]: higher |
| CCCCCc1cc(OCCCCCOc2cc(CCCCC)cc3c2-c2cc(C)ccc2C(C)(C)O3)c2c(c1)OC(C)(C)c1ccc(C)cc1-2 [5C] | – | – | fluorescence, odd carbon spacer compared to the even (2C, 4C and 6C) [1]: higher |
| C=C(C)[C@@H]1CCC(C)=C[C@H]1c1c(O)cc(CCCCC)cc1O [CBD, cannabidiol, reference compound] | lacking in fluorescence | – | – |
| CCCCCc1cc(O)c(C/C=C(\C)CCC=C(C)C)c(O)c1 [CBG, cannabigerol] | lacking in fluorescence | – | – |
| CCCCCc1cc(OC(=O)CCCCC(=O)Oc2cc(CCCCC)cc3c2-c2cc(C)ccc2C(C)(C)O3)c2c(c1)OC(C)(C)c1ccc(C)cc1-2 [CBN adipate dimer, DiCannabinol adipate] | fluorescent properties | 418 | fluorescence result compared among the cannabinoids tested ([3]; over THC adipate dimer): most promising results |
| CCCCCc1cc(O)c2c(c1)OC(C)(C)c1ccc(C)cc1-2 [CBN, cannabinol] | fluorescent | 385 | chemical stability [4]: remains CBN for long durations; fluorescence (fluorescent or not) ([2]; listed as Cannabinol (CBN)): fluorescent properties |
| CCCCCc1cc(Oc2ccc(N)cc2)c2c(c1)OC(C)(C)c1ccc(C)cc1-2 [CBN-aniline] | – | – | fluorescent properties [5]: exhibited fluorescent properties |
| CCCCCc1cc(O)c2c(c1)OC(C)(C)[C@@H]1CC=C(C)C[C@@H]21 [D-8 THC] | fluorescent properties | 380 | – |
| CCCCCc1cc2c(c(O)c1C(=O)O)[C@@H]1C=C(C)CC[C@H]1C(C)(C)O2 [D-9 THCA, Tetrahydrocannabinolic acid] | fluorescent properties | – | – |
| CCCCCc1cc(O)c2c(c1)OC(C)(C)[C@@H]1CCC(C)=C[C@@H]21 [THC, tetrahydrocannabinol, reference compound] | fluorescent | – | – |
| CCCCCc1cc(OCCOc2cc(CCCCC)cc3c2-c2cc(C)ccc2C(C)(C)O3)c2c(c1)OC(C)(C)c1ccc(C)cc1-2 [cannabinol 2C ether dimer, Dicannabinolethyleneether dimer] | – | – | fluorescence quenching with meta-phenylenediamine [6]: minimal quenching; fluorescence quenching with ortho-phenylenediamine [6]: significantly quenched; fluorescence quenching with para-phenylenediamine [6]: significantly quenched |
| CCCCCc1cc(OC(=O)CCCCC(=O)Oc2cc(CCCCC)cc3c2C2CC(C)=CCC2C(C)(C)O3)c2c(c1)OC(C)(C)C1CC=C(C)CC21 (stereo not drawn) [d-8 THC adipate dimer] | fluorescent properties | 384 | – |
